Measurements taken from ChEMBL document CHEMBL4184314, “Synthesis of new 4-aryloxy-N-arylanilines and their inhibitory activities against succinate-cytochrome c reductase” (Bioorg Med Chem Lett, 2018).

Assays:
[1] = Inhibition of porcine succinate-cytochrome c reductase using succinate and cytochrome c as substrate by spectrophotometric analysis; set-up: species or system Sus scrofa
[2] = species: Sus scrofa; test: Inhibition of porcine succinate-cytochrome c reductase at 10 uM using succinate and cytochrome c as substrate by spectrophotometric analysis relative to control
[3] = species: Sus scrofa; test: Inhibition of porcine succinate-cytochrome c reductase complex 2 at 10 uM using succinate and dichlorophenolindophenol as substrate by spectrophotometric analysis relative to control
[4] = species: Sus scrofa; test: Inhibition of porcine succinate-cytochrome c reductase complex 3 at 10 uM using decylubiquinol and cytochrome c as substrate by spectrophotometric analysis relative to control

| SMILES | IC50 [1] [nM] | inhibition [2] [%] | inhibition [3] [%] | inhibition [4] [%] |
| --- | --- | --- | --- | --- |
| c1ccc(Nc2ccc(Oc3ccccc3)cc2)cc1 | > 10000 |  |  |  |
| Cc1ccc(Nc2ccc(Oc3ccccc3)cc2)cc1 | > 10000 |  |  |  |
| Fc1ccc(Br)cc1Oc1ccc(Nc2ccccc2)cc1 | > 10000 |  |  |  |
| Clc1cc(Nc2ccccc2)cc(Cl)c1Oc1ccc2ccccc2c1 | 30 | 78 | 42 | 15 |
| Fc1ccccc1Oc1ccc(Nc2ccccc2)cc1 | > 10000 |  |  |  |
| Clc1ccc(Oc2ccc(Nc3ccccc3)cc2)c(Cl)c1 | 172 |  |  |  |
| Clc1ccc(Oc2c(Cl)cc(Nc3ccccc3)cc2Cl)c(Cl)c1 | 41 |  |  |  |
| Fc1cccc(Nc2ccc(Oc3ccccc3)cc2)c1 | 723 |  |  |  |
| Cc1cccc(Nc2ccc(Oc3ccccc3)cc2)c1 | > 10000 |  |  |  |
| Fc1cccc(Oc2ccc(Nc3ccccc3)cc2)c1F | 1450 |  |  |  |
| Clc1ccc(Oc2ccc(Nc3ccccc3)cc2Cl)c(Cl)c1 | 43 |  |  |  |
| Fc1ccc(Nc2ccc(Oc3ccccc3)cc2)cc1 | > 10000 |  |  |  |
| CC(C)(C)c1ccc(Nc2ccc(Oc3ccccc3)cc2)cc1 | > 10000 |  |  |  |
| CC(C)CC(C)c1sccc1NC(=O)c1cn(C)nc1C(F)(F)F (stereo not drawn) [PENTHIOPYRAD] | 1320 | 82 | 90 | < 10 |
| c1ccc(COc2ccc(Oc3ccc(Nc4ccccc4)cc3)cc2)cc1 | > 10000 |  |  |  |
| Clc1cc(Cl)c(Oc2c(Cl)cc(Nc3ccccc3)cc2Cl)c(Cl)c1 | 21 | 89 | 37 | 13 |
| CO/C=C(\C(=O)OC)c1ccccc1Oc1cc(Oc2ccccc2C#N)ncn1 [Azoxystrobin] | 287 | 99 | 23 | 92 |
| Brc1cc(Nc2ccccc2)ccc1Oc1ccccc1 | 323 |  |  |  |
| COc1ccc(Oc2ccc(Nc3ccccc3)cc2)cc1 | > 10000 |  |  |  |
| Brc1ccccc1Oc1ccc(Nc2ccccc2)cc1 | > 10000 |  |  |  |
| Clc1ccc(Nc2ccc(Oc3ccccc3)cc2)cc1 | 464 |  |  |  |
| FC(F)(F)c1cccc(Nc2ccc(Oc3ccccc3)cc2)c1 | 362 |  |  |  |
| Cc1ccccc1Nc1ccc(Oc2ccccc2)cc1 | > 10000 |  |  |  |
| FC(F)(F)c1ccc(Nc2ccc(Oc3ccccc3)cc2)cc1 | 201 |  |  |  |
| Clc1cccc(Nc2ccc(Oc3ccccc3)cc2)c1 | > 10000 |  |  |  |
| N#Cc1ccccc1Oc1ccc(Nc2ccccc2)cc1 | > 10000 |  |  |  |
